In US4377687A, “Analogs of 1-(2-chloroethyl)-1-nitroso-3-(cycloheyl)-urea substituted by heterocyclic rings or alkyl radicals” (Stiftung Deutsches Krebsforschungszentrum, priority 1978, dated 1983):
Several values for one entry are separate records, joined by “and”; a condition that tells them apart may be missing. Equal entries are not always repeated. Where two headings read alike, the source gives them in different places.

Assays:
[1] = Mean animal weight / weight gain after tumor transplantation; type: in vivo, rat (Sprague-Dawley rats); conditions: CP 70 (exp. 1-3), BCNU 25, MeCCNU 45 (exp. 1), picolyl-3-CNU 25, its HCl 25 (exp. 2), morpholino-CNU 28, piperidino-CNU 15 (exp. 3), dimethylmorpholino-CNU 45 mg/kg (exp. 4); for Mean animal weight on day 50: day 50 after tumor transplantation; for Mean animal weight on day 100: day 100 after tumor transplantation
Experimental: (§1) Male Sprague-Dawley rats were used in the experiments. Yoshida sarcome in ascites form was maintained in the same strain of rats by serial intraperitoneal injection of 0,5 ml of ascites fluid.
(§2) 3×10^6 cells were injected into the colon wall in a manner known per se. The chemotherapeutic treatment was carried out on the eighth day after implantation of the tumor cells.
(§3) Water-insoluble compounds were dissolved in Cremophor EL/ethanol/physiological saline (20:20:60: vol.%). Water-soluble substances were dissolved in physiological saline. Cremophor EL is a surfactant on the basis of polyethoxylated castor oil. All test compounds were administered introperitoneally. The nitrosoureas were applied at approximately equitoxic doses corresponding to about 80% of the acute LD50 values observed in healthy rats of the same strain over a 28-day observation period.
In all treated animals and at all doses tested the mean weight gain was lower than in the controls. Table 3 gives the mean animal weights measured 50 and 100 days after tumor transplantation in experiments 1 to 5.

[2] = tested on: Yoshida sarcoma; type: in vivo, rat (male Sprague-Dawley rats); conditions: for p for improvement of survival time / life expectancy: compared with controls, dimethylmorpholine-CNU 45 mg/kg; for p for improvement of survival time / life expectancy / increase in tumor-free animals (cures) above controls: CP (exp. 1-3); for effect on survival time / life expectancy (in words): experiments 1-4, MeCCNU 45, morpholino-CNU 28 (exp. 3 and 5), dimethylmorpholine-CNU 45, piperidino-CNU 15, picolyl-3-CNU 25, picolyl-3-CNU.HCl 25 mg/kg; for chemotherapeutic activity against Yoshida sarcoma in the colon wall (in words): i.p.; for tumor-free animals at the end of the experiment (in words) / increase in tumor-free animals (cures) above controls: 120 days; for increase in tumor-free animals (cures) above controls: BCNU, MeCCNU 45, dimethylmorpholine-CNU 45, piperidino-CNU 15, picolyl-3-CNU.HCl 25 mg/kg
Experimental: The chemotherapeutic activity of nitrosoureas was compared in antitumor tests using Yoshida sarcoma ascited cells implanted into the wall of the descending colon in Sprague-Dawley rats.
as §1, §2, §3
(§4) Each experiment involved an untreated control group and a varying number of treated groups. Individual survival times were counted as days after tumor inoculation. At the time of death a record of whether an animal was tumor-free or not was made. All animals alive 120 days after tumor inoculation were killed. Animals that according to macroscopic examination had no tumor at the end of the experiment were considered as cured. Since in a number of control rats also no tumors occurred after 120 days the differences in cures between controls and treated animals rather than absolute numbers are reported. Differences in survival were evaluated statistically by individual comparisons between treated rats and controls using a nonparametric log-rank test (Kalbfleisch and Prentice, The statistical analysis of failure time data, Wiley, New York, 1979). Numerical evaluation was performed using a computerized system.

[3] = tested on: Yoshida sarcoma; conditions: previous experiments; i.p.; cited from earlier work
[4] = Water solubility
[5] = tested on: Yoshida sarcoma; type: in vivo, rat (male Sprague-Dawley rats); conditions: i.p.
[6] = Toxicity in treated tumor-bearing rats (Yoshida sarcoma experiments); type: in vivo, rat (Sprague-Dawley rats)
Experimental: as §1, §2, §3, §4

[7] = Experiment 1, CP 70, BCNU 25, MeCCNU 45 mg/kg
[8] = Experiment 1, CP 70, BCNU 25, MeCCNU 45 mg/kg, initial animals CP 30, BCNU 30, MeCCNU 29
[9] = Experiment 1, i.p. day 8, CP 70, BCNU 25, MeCCNU 45 mg/kg
[10] = Experiment 2, CP 70, picolyl-3-CNU 25, picolyl-3-CNU.HCl 25 mg/kg
[11] = Experiment 2, CP 70, picolyl-3-CNU 25, picolyl-3-CNU.HCl 25 mg/kg, 30 initial animals each
[12] = Experiment 3, CP 70, morpholino-CNU 28, piperidino-CNU 15 mg/kg
[13] = Experiment 3, CP 70, morpholino-CNU 28, piperidino-CNU 15 mg/kg, 30 initial animals each
[14] = Experiment 5, CP 70, picolyl-3-CNU.HCl 25, morpholino-CNU 28, piperidino-CNU 15 mg/kg
[15] = Experiment 5, CP 70, picolyl-3-CNU.HCl 25, morpholino-CNU 28, piperidino-CNU 15 mg/kg, 15 initial animals (picolyl-3-CNU.HCl 14)
[16] = Experiment 5, CP 70, piperidino-CNU 15 mg/kg
[17] = Experiment 4, 45 mg/kg, 30 initial animals

SMILES: O=P1(N(CCCl)CCCl)NCCCO1 (stereo not drawn) [CP, 2-bis-(β-chloroethyl)-amino-oxo-2-oxa-2-λ^5-phospha-3-aza-cyclohexane]
- Mean animal weight on day 50 [1]: 300 to 330 g
- Mean animal weight on day 100 [1]: 300 to 370 g
- D1-120 = difference (%) between tf1-120 of treated and untreated animals [2, 7]: 38%
- D120 = difference (%) between tf120 of treated and untreated animals [2, 7]: 25%
- tf1-120 (%) (tf120 + animals dying of toxicity) [2, 7]: 63%
- tf120 (%) (animals surviving day 120 without tumor) [2, 7]: 50%
- tf1-120, No. (tf120 + animals dying of toxicity) [2, 8]: 21
- tf120, No. (animals surviving day 120 without tumor) [2, 8]: 15
- % M (median survival time, untreated control = 100) [2, 9]: > 260%
- M = median survival time [2, 9]: > 120 days
- % M (median survival time, untreated control = 100) [2, 10]: > 545%
- D1-120 = difference (%) between tf1-120 of treated and untreated animals [2, 10]: 58%
- D120 = difference (%) between tf120 of treated and untreated animals [2, 10]: 35%
- tf1-120 (%) (tf120 + animals dying of toxicity) [2, 10]: 80%
- tf120 (%) (animals surviving day 120 without tumor) [2, 10]: 57%
- tf1-120, No. (tf120 + animals dying of toxicity) [2, 11]: 24
- tf120, No. (animals surviving day 120 without tumor) [2, 11]: 17
- M = median survival time ([2]; Experiment 2, i.p. day 8, CP 70, picolyl-3-CNU 25, picolyl-3-CNU.HCl 25 mg/kg): > 120 days
- % M (median survival time, untreated control = 100) [2, 12]: > 686%
- D1-120 = difference (%) between tf1-120 of treated and untreated animals [2, 12]: 48%
- D120 = difference (%) between tf120 of treated and untreated animals [2, 12]: 38%
- tf1-120 (%) (tf120 + animals dying of toxicity) [2, 12]: 77%
- tf120 (%) (animals surviving day 120 without tumor) [2, 12]: 67%
- tf1-120, No. (tf120 + animals dying of toxicity) [2, 13]: 23
- tf120, No. (animals surviving day 120 without tumor) [2, 13]: 20
- M = median survival time ([2]; Experiment 3, i.p. day 8, CP 70, morpholino-CNU 28, piperidino-CNU 15 mg/kg): > 120 days
- % M (median survival time, untreated control = 100) [2, 14]: 400%
- D1-120 = difference (%) between tf1-120 of treated and untreated animals [2, 14]: 7%
- D120 = difference (%) between tf120 of treated and untreated animals [2, 14]: 7%
- tf1-120, No. (tf120 + animals dying of toxicity) [2, 15]: 1
- tf120, No. (animals surviving day 120 without tumor) [2, 15]: 1
- tf120, No. (animals surviving day 120 without tumor) ([2]; Experiment 5, CP 70, picolyl-3-CNU.HCl 25, morpholino-CNU 28, piperidino-CNU 15 mg/kg, 15 initial animals (picolyl-3-CNU.HCl 14), listed as cyclophosphamide): 1/15
- tf1-120 (%) (tf120 + animals dying of toxicity) [2, 16]: 7%
- tf120 (%) (animals surviving day 120 without tumor) [2, 16]: 7%
- M = median survival time ([2]; Experiment 5, i.p. day 8, CP 70, picolyl-3-CNU.HCl 25, morpholino-CNU 28, piperidino-CNU 15 mg/kg): 40 days
- rate of tumor-free animals treated with cyclophosphamide in the other experiments ([2]; after 120 days, experiments other than experiment 5, listed as cyclophosphamide): 50% and 57% and 67%
- p for improvement of survival time / life expectancy [2]: < 0,05
- effect on survival time / life expectancy (in words) [2]: improved significantly
- chemotherapeutic activity against Yoshida sarcoma in the colon wall (in words) [2]: most active compound
- activity against Yoshida sarcoma, shown previously (in words) [3]: responds favorably

SMILES: CC1CN(NC(=O)N(CCCl)N=O)CC(C)O1 (stereo not shown) [Dimethylmorpholino-CNU]
- Mean animal weight on day 50 [1]: 250 g
- Mean animal weight on day 100 [1]: 250 g
- tumor-free animals at the end of the experiment (in words) [2]: remarkable increase in tumor-free animals
- increase in tumor-free animals (cures) above controls [2]: 20%
- % M (median survival time, untreated control = 100) ([2]; Experiment 4, 45 mg/kg): 374%
- D1-120 = difference (%) between tf1-120 of treated and untreated animals ([2]; Experiment 4, 45 mg/kg): 27%
- D120 = difference (%) between tf120 of treated and untreated animals ([2]; Experiment 4, 45 mg/kg): 20%
- tf1-120 (%) (tf120 + animals dying of toxicity) ([2]; Experiment 4, 45 mg/kg): 47%
- tf120 (%) (animals surviving day 120 without tumor) ([2]; Experiment 4, 45 mg/kg): 40%
- tf1-120, No. (tf120 + animals dying of toxicity) [2, 17]: 14
- tf120, No. (animals surviving day 120 without tumor) [2, 17]: 12
- M = median survival time ([2]; Experiment 4, i.p. day 8, 45 mg/kg): 71 days
- p for improvement of survival time / life expectancy [2]: < 0,05
- effect on survival time / life expectancy (in words) ([2]; listed as Dimethylmorpholine-CNU): significantly improved the life expectancy
- effect on survival time / life expectancy (in words) ([2]; listed as dimethylmorpholino-CNU): significant increase in survival time
- chemotherapeutic activity against Yoshida sarcoma in the colon wall (in words) [2]: active
- water solubility (in words) [4]: water-soluble
- concentration reached in the distal colon (in words) [5]: reached the distal colon at chemotherapeutically effective concentrations

SMILES: CC1CCC(NC(=O)N(CCCl)N=O)CC1 (stereo not shown) [MeCCNU, 1-(2-chloroethyl)-3-(4-methylcyclohexyl)-1-nitrosourea]
- Mean animal weight on day 50 [1]: 280 g
- Mean animal weight on day 100 [1]: 300 g
- tumor-free animals at the end of the experiment (in words) [2]: increased the rate of tumor-free animals alive at the end of the experiment
- increase in tumor-free animals (cures) above controls [2]: 8%
- D1-120 = difference (%) between tf1-120 of treated and untreated animals [2, 7]: 27%
- D120 = difference (%) between tf120 of treated and untreated animals [2, 7]: 8%
- tf1-120 (%) (tf120 + animals dying of toxicity) [2, 7]: 52%
- tf120 (%) (animals surviving day 120 without tumor) [2, 7]: 33%
- tf1-120, No. (tf120 + animals dying of toxicity) [2, 8]: 15
- tf120, No. (animals surviving day 120 without tumor) [2, 8]: 10
- % M (median survival time, untreated control = 100) [2, 9]: 130%
- M = median survival time [2, 9]: 60 days
- activity against Yoshida sarcoma, shown previously (in words) [3]: active
- toxicity (in words) ([6]; at the doses tested): obviously toxic
- mortality at 2880 h ([6]; rat, in vivo, ip, 45 mg/kg, read-out: animals died without a tumor before day 120): 19%
